# Measured values taken from ChEMBL document CHEMBL5223117, “Synthesis and biological evaluation of novel N, N'-diarylurea derivatives as potent antibacterial agents against MRSA” (Bioorg Med Chem Lett, 2022).
# Test system: Staphylococcus aureus
# Test: Antibacterial activity against vancomycin intermediate and methicillin resistant Staphylococcus aureus ATCC 700699
# Format: functional
row,Compound,MIC [µM]
1,O=C(Nc1ccc(Cl)c(C(F)(F)F)c1)Nc1ccc(Cl)c(C(F)(F)F)c1,1.2
2,O=C(Nc1ccc(Cl)cc1)Nc1ccc(Cl)c(C(F)(F)F)c1 [CLOFLUCARBAN],0.34

# Test system: Staphylococcus epidermidis
# Test: Antibacterial activity against methicillin sensitive Staphylococcus epidermidis 17-13
# Format: functional
row,Compound,MIC [µM]
1,O=C(Nc1ccc(Cl)c(C(F)(F)F)c1)Nc1ccc(Cl)c(C(F)(F)F)c1,1.2
2,O=C(Nc1ccc(Cl)cc1)Nc1ccc(Cl)c(C(F)(F)F)c1 [CLOFLUCARBAN],0.72

# Test system: Staphylococcus aureus
# Test: Bactericidal activity against methicillin resistant Staphylococcus aureus ATCC 43300
# Format: functional
row,Compound,MBC [µM]
1,O=C(Nc1ccc(Cl)c(C(F)(F)F)c1)Nc1ccc(Cl)c(C(F)(F)F)c1,9.59
2,O=C(Nc1ccc(Cl)cc1)Nc1ccc(Cl)c(C(F)(F)F)c1 [CLOFLUCARBAN],> 45.8

# Test system: Staphylococcus aureus
# Test: Antibacterial activity against methicillin sensitive Staphylococcus aureus ATCC 29213
# Format: functional
row,Compound,MIC [µM]
1,O=C(Nc1ccc(Cl)c(C(F)(F)F)c1)Nc1ccc(Cl)c(C(F)(F)F)c1,1.2
2,O=C(Nc1ccc(Cl)cc1)Nc1ccc(Cl)c(C(F)(F)F)c1 [CLOFLUCARBAN],0.34

# Test system: Enterococcus faecium
# Test: Antibacterial activity against Vanomycin-resistant Enterococcus faecium ATCC 700221
# Format: functional
row,Compound,MIC [µM]
1,O=C(Nc1ccc(Cl)c(C(F)(F)F)c1)Nc1ccc(Cl)c(C(F)(F)F)c1,4.79
2,O=C(Nc1ccc(Cl)cc1)Nc1ccc(Cl)c(C(F)(F)F)c1 [CLOFLUCARBAN],1.43

# Test system: Enterococcus faecium
# Test: Selectivity ratio of MBC for bactericidal activity against Vanomycin-resistant Enterococcus faecium ATCC 700221 to MIC for antibacterial activity against Vanomycin-resistant Enterococcus faecium ATCC 700221
# Format: functional
row,Compound,Ratio
1,O=C(Nc1ccc(Cl)cc1)Nc1ccc(Cl)c(C(F)(F)F)c1 [CLOFLUCARBAN],>64

# Test system: Staphylococcus aureus
# Test: Antibacterial activity against methicillin sensitive Staphylococcus aureus ATCC 33591
# Format: functional
row,Compound,MIC [µM]
1,O=C(Nc1ccc(Cl)c(C(F)(F)F)c1)Nc1ccc(Cl)c(C(F)(F)F)c1,1.2
2,O=C(Nc1ccc(Cl)cc1)Nc1ccc(Cl)c(C(F)(F)F)c1 [CLOFLUCARBAN],0.34

# Test system: not listed separately
# Test: Cytotoxicity against human HeLa cells by SRB assay
# Format: toxicity, cell-based
row,Compound,IC50 [µM]
1,O=C(Nc1ccc(Cl)c(C(F)(F)F)c1)Nc1ccc(Cl)c(C(F)(F)F)c1,2.69
2,O=C(Nc1ccc(Cl)cc1)Nc1ccc(Cl)c(C(F)(F)F)c1 [CLOFLUCARBAN],4.5

# Test system: Staphylococcus epidermidis
# Test: Antibacterial activity against methicillin resistant Staphylococcus epidermidis 19-1
# Format: functional
row,Compound,MIC [µM]
1,O=C(Nc1ccc(Cl)c(C(F)(F)F)c1)Nc1ccc(Cl)c(C(F)(F)F)c1,1.2
2,O=C(Nc1ccc(Cl)cc1)Nc1ccc(Cl)c(C(F)(F)F)c1 [CLOFLUCARBAN],0.72

# Test system: Staphylococcus aureus
# Test: Antibacterial activity against methicillin resistant Staphylococcus aureus ATCC 43300
# Format: functional
row,Compound,MIC [µM]
1,O=C(Nc1ccc(Cl)c(C(F)(F)F)c1)Nc1ccc(Cl)c(C(F)(F)F)c1,1.2
2,O=C(Nc1ccc(Cl)cc1)Nc1ccc(Cl)c(C(F)(F)F)c1 [CLOFLUCARBAN],0.72

# Test system: Enterococcus faecalis
# Test: Antibacterial activity against Vanomycin-resistant Enterococcus faecalis ATCC 51575
# Format: functional
row,Compound,MIC [µM]
1,O=C(Nc1ccc(Cl)c(C(F)(F)F)c1)Nc1ccc(Cl)c(C(F)(F)F)c1,4.79
2,O=C(Nc1ccc(Cl)cc1)Nc1ccc(Cl)c(C(F)(F)F)c1 [CLOFLUCARBAN],2.86

# Test system: Staphylococcus aureus
# Test: Antibacterial activity against methicillin resistant Staphylococcus aureus 20-11
# Format: functional
row,Compound,MIC [µM]
1,O=C(Nc1ccc(Cl)c(C(F)(F)F)c1)Nc1ccc(Cl)c(C(F)(F)F)c1,1.2
2,O=C(Nc1ccc(Cl)cc1)Nc1ccc(Cl)c(C(F)(F)F)c1 [CLOFLUCARBAN],0.72

# Test system: Enterococcus faecium
# Test: Antibacterial activity against Vanomycin-resistant Enterococcus faecium 15-6
# Format: functional
row,Compound,MIC [µM]
1,O=C(Nc1ccc(Cl)c(C(F)(F)F)c1)Nc1ccc(Cl)c(C(F)(F)F)c1,2.4
2,O=C(Nc1ccc(Cl)cc1)Nc1ccc(Cl)c(C(F)(F)F)c1 [CLOFLUCARBAN],2.86

# Test system: Staphylococcus aureus
# Test: Bactericidal activity against methicillin resistant Staphylococcus aureus ATCC 33591
# Format: functional
row,Compound,MBC [µM]
1,O=C(Nc1ccc(Cl)c(C(F)(F)F)c1)Nc1ccc(Cl)c(C(F)(F)F)c1,4.79
2,O=C(Nc1ccc(Cl)cc1)Nc1ccc(Cl)c(C(F)(F)F)c1 [CLOFLUCARBAN],> 45.8

# Test system: Staphylococcus aureus
# Test: Selectivity ratio of MBC for bactericidal activity against methicillin resistant Staphylococcus aureus ATCC 43300 to MIC for antibacterial activity against methicillin resistant Staphylococcus aureus ATCC 43300
# Format: functional
row,Compound,Ratio
1,O=C(Nc1ccc(Cl)c(C(F)(F)F)c1)Nc1ccc(Cl)c(C(F)(F)F)c1,8
2,O=C(Nc1ccc(Cl)cc1)Nc1ccc(Cl)c(C(F)(F)F)c1 [CLOFLUCARBAN],>64

# Test system: Staphylococcus aureus
# Test: Selectivity ratio of MBC for bactericidal activity against vancomycin intermediate and methicillin resistant Staphylococcus aureus ATCC 700698 to MIC for antibacterial activity against vancomycin intermediate and methicillin resistant Staphylococcus aureus ATCC 700698
# Format: functional
row,Compound,Ratio
1,O=C(Nc1ccc(Cl)cc1)Nc1ccc(Cl)c(C(F)(F)F)c1 [CLOFLUCARBAN],>32

# Test system: Enterococcus faecalis
# Test: Antibacterial activity against Vanomycin-resistant Enterococcus faecalis ATCC 51299
# Format: functional
row,Compound,MIC [µM]
1,O=C(Nc1ccc(Cl)c(C(F)(F)F)c1)Nc1ccc(Cl)c(C(F)(F)F)c1,4.79
2,O=C(Nc1ccc(Cl)cc1)Nc1ccc(Cl)c(C(F)(F)F)c1 [CLOFLUCARBAN],1.43

# Test system: Enterococcus faecalis
# Test: Bactericidal activity against Vanomycin-resistant Enterococcus faecalis ATCC 51299
# Format: functional
row,Compound,MBC [µM]
1,O=C(Nc1ccc(Cl)cc1)Nc1ccc(Cl)c(C(F)(F)F)c1 [CLOFLUCARBAN],> 183

# Test system: Staphylococcus aureus
# Test: Bactericidal activity against methicillin resistant Staphylococcus aureus 16-30
# Format: functional
row,Compound,MBC [µM]
1,O=C(Nc1ccc(Cl)c(C(F)(F)F)c1)Nc1ccc(Cl)c(C(F)(F)F)c1,9.59
2,O=C(Nc1ccc(Cl)cc1)Nc1ccc(Cl)c(C(F)(F)F)c1 [CLOFLUCARBAN],> 22.9

# Test system: Staphylococcus epidermidis
# Test: Antibacterial activity against methicillin resistant Staphylococcus epidermidis 19-2
# Format: functional
row,Compound,MIC [µM]
1,O=C(Nc1ccc(Cl)c(C(F)(F)F)c1)Nc1ccc(Cl)c(C(F)(F)F)c1,1.2
2,O=C(Nc1ccc(Cl)cc1)Nc1ccc(Cl)c(C(F)(F)F)c1 [CLOFLUCARBAN],0.72

# Test system: Staphylococcus aureus
# Test: Antibacterial activity against methicillin resistant Staphylococcus aureus ATCC 33591
# Format: functional
row,Compound,MIC [µM]
1,O=C(Nc1ccc(Cl)c(C(F)(F)F)c1)Nc1ccc(Cl)c(C(F)(F)F)c1,1.2
2,O=C(Nc1ccc(Cl)cc1)Nc1ccc(Cl)c(C(F)(F)F)c1 [CLOFLUCARBAN],0.34

# Test system: not listed separately
# Test: Cytotoxicity against human HepG2 cells by SRB assay
# Format: toxicity, cell-based
row,Compound,IC50 [µM]
1,O=C(Nc1ccc(Cl)c(C(F)(F)F)c1)Nc1ccc(Cl)c(C(F)(F)F)c1,7.72
2,O=C(Nc1ccc(Cl)cc1)Nc1ccc(Cl)c(C(F)(F)F)c1 [CLOFLUCARBAN],7.7

# Test system: Enterococcus faecium
# Test: Bactericidal activity against Vanomycin-resistant Enterococcus faecium ATCC 700221
# Format: functional
row,Compound,MBC [µM]
1,O=C(Nc1ccc(Cl)cc1)Nc1ccc(Cl)c(C(F)(F)F)c1 [CLOFLUCARBAN],> 91.7

# Test system: Staphylococcus aureus
# Test: Antibacterial activity against vancomycin intermediate and methicillin resistant Staphylococcus aureus ATCC 700698
# Format: functional
row,Compound,MIC [µM]
1,O=C(Nc1ccc(Cl)c(C(F)(F)F)c1)Nc1ccc(Cl)c(C(F)(F)F)c1,1.2
2,O=C(Nc1ccc(Cl)cc1)Nc1ccc(Cl)c(C(F)(F)F)c1 [CLOFLUCARBAN],0.72

# Test system: Staphylococcus aureus
# Test: Bactericidal activity against vancomycin intermediate and methicillin resistant Staphylococcus aureus ATCC 700698
# Format: functional
row,Compound,MBC [µM]
1,O=C(Nc1ccc(Cl)cc1)Nc1ccc(Cl)c(C(F)(F)F)c1 [CLOFLUCARBAN],> 22.9

# Test system: Enterococcus faecium
# Test: Antibacterial activity against Vanomycin-resistant Enterococcus faecium ATCC 51559
# Format: functional
row,Compound,MIC [µM]
1,O=C(Nc1ccc(Cl)c(C(F)(F)F)c1)Nc1ccc(Cl)c(C(F)(F)F)c1,4.79
2,O=C(Nc1ccc(Cl)cc1)Nc1ccc(Cl)c(C(F)(F)F)c1 [CLOFLUCARBAN],1.43

# Test system: Enterococcus faecalis
# Test: Selectivity ratio of MBC for bactericidal activity against Vanomycin-resistant Enterococcus faecalis ATCC 51299 to MIC for antibacterial activity against Vanomycin-resistant Enterococcus faecalis ATCC 51299
# Format: functional
row,Compound,Ratio
1,O=C(Nc1ccc(Cl)cc1)Nc1ccc(Cl)c(C(F)(F)F)c1 [CLOFLUCARBAN],>128

# Test system: Staphylococcus aureus
# Test: Selectivity ratio of MBC for bactericidal activity against methicillin resistant Staphylococcus aureus ATCC 33591 to MIC for antibacterial activity against methicillin resistant Staphylococcus aureus ATCC 33591
# Format: functional
row,Compound,Ratio
1,O=C(Nc1ccc(Cl)c(C(F)(F)F)c1)Nc1ccc(Cl)c(C(F)(F)F)c1,4
2,O=C(Nc1ccc(Cl)cc1)Nc1ccc(Cl)c(C(F)(F)F)c1 [CLOFLUCARBAN],>135

# Test system: Staphylococcus epidermidis
# Test: Antibacterial activity against methicillin sensitive Staphylococcus epidermidis ATCC 12228
# Format: functional
row,Compound,MIC [µM]
1,O=C(Nc1ccc(Cl)c(C(F)(F)F)c1)Nc1ccc(Cl)c(C(F)(F)F)c1,1.2
2,O=C(Nc1ccc(Cl)cc1)Nc1ccc(Cl)c(C(F)(F)F)c1 [CLOFLUCARBAN],0.72

# Test system: Staphylococcus aureus
# Test: Antibacterial activity against methicillin resistant Staphylococcus aureus 16-30
# Format: functional
row,Compound,MIC [µM]
1,O=C(Nc1ccc(Cl)c(C(F)(F)F)c1)Nc1ccc(Cl)c(C(F)(F)F)c1,1.2
2,O=C(Nc1ccc(Cl)cc1)Nc1ccc(Cl)c(C(F)(F)F)c1 [CLOFLUCARBAN],0.72

# Test system: Staphylococcus aureus
# Test: Antibacterial activity against methicillin sensitive Staphylococcus aureus 20-12
# Format: functional
row,Compound,MIC [µM]
1,O=C(Nc1ccc(Cl)c(C(F)(F)F)c1)Nc1ccc(Cl)c(C(F)(F)F)c1,1.2
2,O=C(Nc1ccc(Cl)cc1)Nc1ccc(Cl)c(C(F)(F)F)c1 [CLOFLUCARBAN],1.43

# Test system: Staphylococcus aureus
# Test: Selectivity ratio of MBC for bactericidal activity against methicillin resistant Staphylococcus aureus 16-30 to MIC for antibacterial activity against methicillin resistant Staphylococcus aureus 16-30
# Format: functional
row,Compound,Ratio
1,O=C(Nc1ccc(Cl)c(C(F)(F)F)c1)Nc1ccc(Cl)c(C(F)(F)F)c1,8
2,O=C(Nc1ccc(Cl)cc1)Nc1ccc(Cl)c(C(F)(F)F)c1 [CLOFLUCARBAN],>32

# Test system: Staphylococcus aureus
# Test: Antibacterial activity against methicillin resistant Staphylococcus aureus 18-2
# Format: functional
row,Compound,MIC [µM]
1,O=C(Nc1ccc(Cl)c(C(F)(F)F)c1)Nc1ccc(Cl)c(C(F)(F)F)c1,1.2
2,O=C(Nc1ccc(Cl)cc1)Nc1ccc(Cl)c(C(F)(F)F)c1 [CLOFLUCARBAN],0.34

# Test system: Staphylococcus aureus
# Test: Antibacterial activity against methicillin sensitive Staphylococcus aureus 15
# Format: functional
row,Compound,MIC [µM]
1,O=C(Nc1ccc(Cl)c(C(F)(F)F)c1)Nc1ccc(Cl)c(C(F)(F)F)c1,1.2
2,O=C(Nc1ccc(Cl)cc1)Nc1ccc(Cl)c(C(F)(F)F)c1 [CLOFLUCARBAN],0.72
